One assay has as its system S. aureus. The conditions noted are these: cited from earlier work.
For assay [1], the system named is S. aureus ATCC25923. Nature of the assay: MIC determination by 2-fold microdilution, resazurin method. In kind it is cell-based, Staphylococcus aureus. The settings on record: S. aureus ATCC25923, single drug; for MIC: Staphylococcus aureus.
The target of assay [2] is T1, FtsZSa (Staphylococcus aureus, UniProt P0A031).
T1 sequence (P0A031 1-390): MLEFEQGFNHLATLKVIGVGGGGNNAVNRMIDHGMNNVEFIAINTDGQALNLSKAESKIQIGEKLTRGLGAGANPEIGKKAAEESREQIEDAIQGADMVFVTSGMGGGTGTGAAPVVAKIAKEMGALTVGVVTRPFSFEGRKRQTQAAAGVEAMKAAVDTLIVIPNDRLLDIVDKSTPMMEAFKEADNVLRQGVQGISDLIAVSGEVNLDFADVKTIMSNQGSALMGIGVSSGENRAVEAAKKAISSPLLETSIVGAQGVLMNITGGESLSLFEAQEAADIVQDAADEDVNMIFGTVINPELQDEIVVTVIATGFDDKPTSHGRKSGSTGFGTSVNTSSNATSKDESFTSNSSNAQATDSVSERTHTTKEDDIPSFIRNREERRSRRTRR
Nature of the assay: FtsZSa polymerization, 90° light scattering.

Assay [3] relates to S. aureus cystic fibrosis clinical isolates. Nature of the assay: MIC for CF clinical isolates. In kind it is cell-based.
Assay [4] deals with S. aureus ATCC25923. Nature of the assay: Checkerboard assay of C11 with antibiotics. The conditions noted are these: antibiotic combined with C11. Format: cell-based.
Assay [5] has as its target T2, S. aureus FtsZ protein (FtsZSa) (Staphylococcus aureus, UniProt P0A031).
T2 construct: made in house; host or cells: Escherichia coli BL21DE3
T2 sequence (P0A031 1-390): T1 sequence (P0A031 1-390)
Nature of the assay: In vitro FtsZ GTPase activity (PK/LDH coupled assay). In kind it is biochemical. Set-up: Residual GTPase activity: concentration or dose not given beside the values. The conditions noted are these: S. aureus FtsZ protein. The procedure:
In vitro FtsZ GTPase activity
FtsZSa and FtsZPa were expressed and purified as previously described.13,14 GTPase activity was assayed at 30°C using a pyruvate kinase–L-lactic dehydrogenase (PK/LDH) spectrophotometric coupled assay, as previously described15 with minor modification. The reaction mixture was first set up to contain 50 mM MES […]
phosphoenolpyruvate, and 4.8 μM of FtsZ. The assay was initiated by the addition of 1 mM GTP. The experiments were performed in triplicate. The inhibitory concentration that reduced the enzymatic activity by half (IC50) was determined using Prism 10. […]

Assay [6] has as its target T1, FtsZSa. Nature of the assay: FtsZSa polymerization, sedimentation assay. The settings on record: sedimentation assay of C11 derivatives.
The subject of the next assay is mammalian tubulin. Nature of the assay: Tubulin polymerization assay, fluorescence based. In kind it is biochemical. The conditions noted are these: 10 μM; DMSO control 3.78.
Assay [7] deals with Mycobacterium tuberculosis. Also on record: method as in PMID 21126020. The settings on record: cited from earlier work.

pIC50: −log10 of the molar value. Converted amounts (≈) assume the structure as drawn. Read-outs that look alike come from different tables or passages of the source. Bounds are passed on as bounds.

`CN1CCC(C(=O)NC(=O)c2c(F)ccc(OCc3nc4cc(C(F)(F)F)cnc4s3)c2F)CC1` [TX709]: the “MIC S. aureus” value in the assay with S. aureus (ref 19−22) was 2 to 4 µg/mL.
For orientation: MIC means the smallest concentration in the dilution series that meets the test's criterion for growth inhibition. As to `O=C(CN1C(=O)c2ccccc2S1(=O)=O)Nc1nc(-c2ccccc2)cs1` [C11.12], in the assay with S. aureus ATCC25923 [1], the MIC is at least 128 µg/mL.
Regarding `NC(=O)c1c(F)ccc(OCc2nc3cc(C(F)(F)F)cnc3s2)c1F` [TX707], in the assay with S. aureus (ref 19−22), the “MIC S. aureus” value is 0.25 to 2 µg/mL.
A word on the pIC50: it is the IC50 on a negative log10 scale, so that one unit is a factor of ten. Take `O=S1(=O)N=C(Nc2nc(-c3ccccc3)cs2)c2ccccc21` [C11.5]: in the assay on S. aureus ATCC25923 [1], the “MIC S. aureus” value is at least 128 µg/mL and the MIC was at least 128 µg/mL. For the same molecule, the negative logarithm of the IC50 (pIC50) on FtsZSa [2] was 4.46.
For `C[C@@H](O)[C@H]1C(=O)N2C(C(=O)O)=C(S[C@@H]3CN[C@H](C(=O)N(C)C)C3)[C@H](C)[C@H]12` [Meropenem, reference compound], the MIC is 0.25 µg/mL (≈ 0.652 µM) in the assay on S. aureus ATCC25923 [1]; 2 µg/mL (≈ 5.22 µM) in assay [3] (S. aureus BG8 MRSA, single drug); 16 µg/mL (≈ 41.7 µM) in [3] (S. aureus BG10 MRSA, single drug); 4 µg/mL (≈ 10.4 µM) in assay [3] (Staphylococcus aureus, MRSA, S. aureus BG6 MRSA, read-out: MIC); 2 µg/mL (≈ 5.22 µM) in [3] (Staphylococcus aureus, MRSA, S. aureus BG7 MRSA smv, read-out: MIC); 2 µg/mL (≈ 5.22 µM) in assay [3] (Staphylococcus aureus, MRSA, S. aureus BG8 MRSA, single drug, read-out: MIC). The MIC in assay [3] (Staphylococcus aureus, MRSA, S. aureus BG10 MRSA, single drug, read-out: MIC) came to 16 µg/mL (≈ 41.7 µM); in assay [3] (Staphylococcus aureus, S. aureus BG1, read-out: MIC), 0.5 µg/mL (≈ 1.3 µM); in [3] (Staphylococcus aureus, S. aureus BG2, read-out: MIC) it was 0.5 µg/mL (≈ 1.3 µM); in assay [3] (Staphylococcus aureus, S. aureus BG3, read-out: MIC) it was 0.25 µg/mL (≈ 0.652 µM); in [3] (Staphylococcus aureus, S. aureus BG4, read-out: MIC), 0.25 µg/mL (≈ 0.652 µM); in assay [3] (Staphylococcus aureus, S. aureus BG5, read-out: MIC) it was 0.25 µg/mL (≈ 0.652 µM). For the same molecule, the “Effect of the combination with C11” value with S. aureus ATCC25923 [4] is listed as “synergistic effect”.
With `NC(=O)c1cc(OC2CN(C(=O)Nc3ccccc3F)C2)ccn1` [C6], the “MIC S. aureus” value against S. aureus ATCC25923 [1] was at least 256 µg/mL. Besides, the “Residual GTPase activity” value in assay [5] came to 92.8%.
Take `O=C(Oc1cc(OC(=O)c2ccc(O)c(Cl)c2)c2ccccc2c1)c1ccc(O)c(Cl)c1` [UCM53]: the “MIC S. aureus” value in the assay on S. aureus (ref 15−17) was 2 to 8 µg/mL.
For `O=S1(=O)N=C(Nc2nc3c(s2)CCCC3)c2ccccc21` [C11.3], in the assay on S. aureus ATCC25923 [1], the MIC is at least 128 µg/mL.
In the assay with S. aureus ATCC25923 [1], `CCOc1ccc(NC(=O)CN2C(=O)c3ccccc3S2(=O)=O)cc1` [C11.4] gave an MIC of at least 128 µg/mL. On FtsZSa [2], this molecule showed a pIC50 of 4.38.
Consider `CC(C)(O/N=C(\C(=O)N[C@@H]1C(=O)N2C(C(=O)[O-])=C(C[n+]3ccccc3)CS[C@H]12)c1csc(N)n1)C(=O)O` [Ceftazidime, reference compound], for which the MIC against S. aureus ATCC25923 [1] came to 16 µg/mL (≈ 29.3 µM). For the same molecule, in the assay on S. aureus ATCC25923 [4], the “Effect of the combination with C11” value is recorded as “synergistic effect”.
As for `Cc1occc1-c1nnc(SC2=CS(=O)(=O)c3ccccc32)o1` [C11.8], in the assay on S. aureus ATCC25923 [1], it took 128 µg/mL (≈ 370 µM) to inhibit growth (MIC). Further, the pIC50 against FtsZSa [2] was 4.38.
On to `Cc1ccc(-c2nnc(SC3=CS(=O)(=O)c4ccccc43)o2)cc1` [C11.11], for which the minimal inhibitory concentration (MIC) against S. aureus ATCC25923 [1] was at least 128 µg/mL.
Molecule `O=S1(=O)C=C(Sc2nnc(-c3ccccc3)o2)c2ccccc21` [C11.2] had an MIC against S. aureus ATCC25923 [1] of 8 µg/mL (≈ 23.4 µM). At FtsZSa [2], the pIC50 is 4.62.
As to `CC(O)c1ccc(C2(CNC(=O)c3ccc(C(F)(F)F)nc3)CCCC2)s1` (centres unmarked) [C2], the “MIC S. aureus” value in the assay with S. aureus ATCC25923 [1] was at least 256 µg/mL. The “Residual GTPase activity” value in assay [5] is reported as 35.5%.
`CC[C@H]1OC(=O)[C@H](C)[C@@H](O[C@H]2C[C@@](C)(OC)[C@@H](O)[C@H](C)O2)[C@H](C)[C@@H](O[C@@H]2O[C@H](C)C[C@H](N(C)C)[C@H]2O)[C@](C)(O)C[C@@H](C)C(=O)[C@H](C)[C@@H](O)[C@]1(C)O` [Erythromycin, reference compound] gave an MIC against S. aureus ATCC25923 [1] of 0.5 µg/mL (≈ 0.681 µM). Also, the “Effect of the combination with C11” value with S. aureus ATCC25923 [4] is “additive effect”.
With `COc1ccccc1-c1cc(C(=O)NCC(N)=O)[nH]n1` [C5], the “MIC S. aureus” value in the assay on S. aureus ATCC25923 [1] was at least 256 µg/mL. The “Residual GTPase activity” value in assay [5] came to 95.3%.
`O=C(CSc1nnc(NC2=NS(=O)(=O)c3ccccc32)s1)Nc1ccc(Cl)cc1` [C11.10] showed an MIC in the assay with S. aureus ATCC25923 [1] of at least 128 µg/mL.
`O=C(Oc1ccc(NC2=NS(=O)(=O)c3ccccc32)cc1)c1ccccc1` [C11.1]: the MIC in the assay with S. aureus ATCC25923 [1] is at least 128 µg/mL. The molecule further gave a pIC50 at FtsZSa [2] of 4.14. Also, the “Activity on FtsZSa polymerization” value on FtsZSa [6] is reported as “mild activity”.
Regarding `CC(=O)O[C@H]1C(=O)[C@@]2(C)[C@H]([C@H](OC(=O)c3ccccc3)[C@]3(O)C[C@H](OC(=O)[C@H](O)[C@@H](NC(=O)c4ccccc4)c4ccccc4)C(C)=C1C3(C)C)[C@]1(OC(C)=O)CO[C@@H]1C[C@@H]2O` [Paclitaxel, paclitaxel, reference compound], the “Vmax of tubulin polymerization” value in the assay with mammalian tubulin stood at 21.45 mOD/min.
Take Benzimidazole: in [7], the “MIC Mtb H3tRv” value was 0.39 µg/mL.
As for `CCc1sc(NC2=NS(=O)(=O)c3ccccc32)nc1-c1ccccc1` [C11.7], in the assay on S. aureus ATCC25923 [1], the “MIC S. aureus” value was determined as 8 µg/mL (≈ 21.7 µM) and inhibition of growth (MIC) required 8 µg/mL (≈ 21.7 µM). The molecule further showed a pIC50 on FtsZSa [2] of 4.53.
For `Cc1ccc(-c2nnc(Nc3cccc(O)c3)c3ccccc23)cc1S(N)(=O)=O` [C9], in the assay on S. aureus ATCC25923 [1], the “MIC S. aureus” value was at least 256 µg/mL. Besides, the “Residual GTPase activity” value in assay [5] is given as 34.3%.
Take `COc1ccc(CC(=O)Nc2cccc(C(N)=O)c2)cc1` [C8]: in the assay on S. aureus ATCC25923 [1], the “MIC S. aureus” value was at least 256 µg/mL. In assay [5], the pIC50 is 5.08 and the “Residual GTPase activity” value is recorded as 11.8%.
Regarding `CO[C@H]1/C=C/O[C@@]2(C)Oc3c(C)c(O)c4c(O)c(c(/C=N/N5CCN(C)CC5)c(O)c4c3C2=O)NC(=O)/C(C)=C\C=C\[C@H](C)[C@H](O)[C@@H](C)[C@@H](O)[C@@H](C)[C@H](OC(C)=O)[C@@H]1C` [Rifampicin, reference compound], the MIC in the assay with S. aureus ATCC25923 [1] came out at 0.03 µg/mL (≈ 0.0365 µM). In addition, in the assay on S. aureus ATCC25923 [4], the “Effect of the combination with C11” value is reported as “synergistic effect”.
With `CN(C)[C@@H]1C(O)=C(C(N)=O)C(=O)[C@@]2(O)C(O)=C3C(=O)c4c(O)cccc4[C@@](C)(O)[C@H]3C[C@@H]12` [Tetracycline, reference compound], the lowest concentration to inhibit growth against S. aureus ATCC25923 [1] (MIC) was 0.5 µg/mL (≈ 1.13 µM). The “Effect of the combination with C11” value in the assay with S. aureus ATCC25923 [4] was “additive effect”.
Turning to `COC(=O)c1ccc(CSc2ccc(-c3ccc4c(c3)OCO4)nn2)o1` [C1], the “MIC S. aureus” value in the assay with S. aureus ATCC25923 [1] is at least 256 µg/mL. The “Residual GTPase activity” value in assay [5] stood at 78.5%.
For the molecule `O=C(c1ccco1)N1CCN(C2=NS(=O)(=O)c3ccccc32)CC1` [C11.6], the minimal inhibitory concentration (MIC) in the assay on S. aureus ATCC25923 [1] was at least 128 µg/mL.
As for `CC(=O)NC[C@H]1CN(c2ccc(N3CCOCC3)c(F)c2)C(=O)O1` [Linezolid, reference compound], the MIC with S. aureus ATCC25923 [1] was 2 µg/mL (≈ 5.93 µM). For the same molecule, the “Effect of the combination with C11” value in the assay on S. aureus ATCC25923 [4] was “additive effect”.
In the assay with S. aureus ATCC25923 [1], `O=S1(=O)N=C(Nc2nnc(SCc3ccccc3Cl)s2)c2ccccc21` [C11.9] returned an MIC of 128 µg/mL (≈ 303 µM).

Source of the values: PMC11998009, “Identification of a New FtsZ Inhibitor by Virtual Screening, Mechanistic Insights, and Structure–Activity Relationship Analyses” (ACS Infectious Diseases, 2025).
